Data from patent US20240252527A9, “NUCLEOSIDE DRUGS FOR THE TREATMENT OR PREVENTION OF CORONAVIRUS INFECTION AND THEIR USES” (Miracure Biotechnology Limited, priority 2022, published 2024).
Like-named read-outs stand apart in the source and are kept apart here.

Columns and labels:
229E = 229E MRC5 CPE assay (cytopathic experiment); type: cell-based, coronavirus 229E (HCoV-229E)
Protocol: (§1) Cells were seeded into microplates at a certain density and cultured overnight in a incubator at 5% CO2, 37° C. The next day, double-diluted compound and virus were added. It was set up a cell control group (cells without treatment with a compound or virus infection), a virus control group (cells infected with virus, no compound treatment) and a culture medium control group (medium only). Cells were cultured in the incubator for 3 days (229E) or 7 days (OC43). Cytotoxicity experiments were performed under the same conditions as antiviral experiments, but without virus infection. Cell viability was tested using a cell viability assay kit Cell Titer Glo (Promega).
(§2) The antiviral activity and cytotoxicity of the compounds were expressed by the inhibition rate (%) and cell viability (%) of the compounds against virus-induced cytopathic effects at different concentrations, respectively. Nonlinear fitting analysis on the inhibition rate and cell viability of the compounds were carried out with the GraphPad Prism, and the half effective concentration (EC50), the […] effective concentration (EC90), the half cytotoxic concentration (CC50) and the 90% cytotoxic concentration of the compound […] values were calculated.

OC43 = OC43 Huh7 CPE assay (cytopathic experiment); type: cell-based, coronavirus OC43 (HCoV-OC43); settings: Betacoronavirus 1, OC43, Huh-7, 168 h; for EC50: read-out: OC43 Huh7 CPE assay (μM) EC50; for EC90: read-out: OC43 Huh7 CPE assay (μM) EC90
Protocol: as §1, §2

[1] = Human coronavirus 229E, MRC5, 72 h, read-out: 229E MRC5 CPE assay (μM) EC50
[2] = Human coronavirus 229E, MRC5, 72 h, read-out: 229E MRC5 CPE assay (μM) EC90
[3] = Human coronavirus 229E, MRC5, 72 h; read-out: 229E MRC5 CPE assay (μM) EC50
[4] = Human coronavirus 229E, MRC5, 72 h; read-out: 229E MRC5 CPE assay (μM) EC90

Row | Structure (SMILES) | EC50 (229E; [1]) | EC90 (229E; [2]) | EC50 (OC43) | EC90 (OC43) | EC50 (229E; [3]) | EC90 (229E; [4])
1 | CCCN(CCC)S(=O)(=O)c1ccc(C(=O)OCO[P@@](=O)(N[C@@H](C)C(=O)OCC(CC)CC)OC[C@H]2O[C@@](C#N)(c3ccc4c(N)ncnn34)[C@H](O)[C@@H]2O)cc1 [Compound 161] | > 0.5 µM | > 0.5 µM | > 0.5 µM | > 0.5 µM |  | 
2 | CCCN(CCC)S(=O)(=O)c1ccc(C(=O)OCO[P@@](=O)(NC(C)(C)C(=O)OC(C)C)OC[C@H]2O[C@@](C#N)(c3ccc4c(N)ncnn34)[C@H](O)[C@@H]2O)cc1 [Compound 162] | > 0.5 µM | > 0.5 µM | > 0.5 µM | > 0.5 µM |  | 
3 | CCCN(CCC)S(=O)(=O)c1ccc(C(=O)OCOP(=O)(NC(C)(C)C(=O)OC(C)C)OC[C@H]2O[C@@](C#N)(c3ccc4c(N)ncnn34)[C@H](O)[C@@H]2O)cc1 (stereo partly shown) [Compound 163] | > 0.5 µM | > 0.5 µM | > 0.5 µM | > 0.5 µM |  | 
4 | CCCN(CCC)S(=O)(=O)c1ccc(C(=O)OCOP(=O)(OCOC(=O)c2ccc(S(=O)(=O)N(CCC)CCC)cc2)OC[C@H]2O[C@@](C#N)(c3ccc4c(N)ncnn34)[C@H](O)[C@@H]2O)cc1 [Compound 164] | > 0.5 µM | > 0.5 µM | > 0.5 µM | > 0.5 µM |  | 
5 | CCC(CC)COC(=O)[C@H](C)N[P@@](=O)(OCOC(=O)c1cccnc1)OC[C@H]1O[C@@](C#N)(c2ccc3c(N)ncnn23)[C@H](O)[C@@H]1O [Compound 174] | > 0.5 µM | > 0.5 µM | > 0.5 µM | > 0.5 µM |  | 
6 | CCC(CC)COC(=O)[C@H](C)NP(=O)(OCOC(=O)c1cccnc1)OC[C@H]1O[C@@](C#N)(c2ccc3c(N)ncnn23)[C@H](O)[C@@H]1O (stereo partly shown) [Compound 175] | > 0.5 µM | > 0.5 µM | > 0.5 µM | > 0.5 µM |  | 
7 | CC(C)OC(=O)C(C)(C)N[P@](=O)(OCOC(=O)c1cccnc1)OC[C@H]1O[C@@](C#N)(c2ccc3c(N)ncnn23)[C@H](O)[C@@H]1O [Compound 176] | > 0.5 µM | > 0.5 µM | > 0.5 µM | > 0.5 µM |  | 
8 | CC(C)OC(=O)C(C)(C)NP(=O)(OCOC(=O)c1cccnc1)OC[C@H]1O[C@@](C#N)(c2ccc3c(N)ncnn23)[C@H](O)[C@@H]1O (stereo partly shown) [Compound 177] | > 0.5 µM | > 0.5 µM | > 0.5 µM | > 0.5 µM |  | 
9 | N#C[C@@]1(c2ccc3c(N)ncnn23)OC2CO[P@](=O)(OCOC(=O)c3cccnc3)O[C@H]2[C@H]1O (stereo partly shown) [Compound 179] | > 0.5 µM | > 0.5 µM | > 0.5 µM | > 0.5 µM |  | 
10 | N#C[C@@]1(c2ccc3c(N)ncnn23)OC2CO[P@@](=O)(OCOC(=O)c3cccnc3)O[C@H]2[C@H]1O (stereo partly shown) [Compound 180] | > 0.5 µM | > 0.5 µM | > 0.5 µM | > 0.5 µM |  | 
11 | N#C[C@@]1(c2ccc3c(N)ncnn23)O[C@@H]2COP(=O)(O)O[C@H]2[C@H]1OC(=O)c1cccnc1 [Compound 181] | > 0.5 µM | > 0.5 µM | > 0.5 µM | > 0.5 µM |  | 
12 | CCC(CC)COC(=O)[C@H](C)N[P@@](=O)(OCOC(=O)C(C)(C)C)OC[C@H]1O[C@@](C#N)(c2ccc3c(N)ncnn23)[C@H](O)[C@@H]1O [Compound 192] | 0.1 to 0.5 µM | > 0.5 µM | 0.1 to 0.5 µM | > 0.5 µM |  | 
13 | CCC(CC)COC(=O)[C@H](C)NP(=O)(OCOC(=O)C(C)(C)C)OC[C@H]1O[C@@](C#N)(c2ccc3c(N)ncnn23)[C@H](O)[C@@H]1O (stereo partly shown) [Compound 193] | 0.1 to 0.5 µM | > 0.5 µM | 0.1 to 0.5 µM | > 0.5 µM |  | 
14 | CC(C)OC(=O)C(C)(C)N[P@](=O)(OCOC(=O)C(C)(C)C)OC[C@H]1O[C@@](C#N)(c2ccc3c(N)ncnn23)[C@H](O)[C@@H]1O [Compound 194] | 0.1 to 0.5 µM | > 0.5 µM | 0.1 to 0.5 µM | > 0.5 µM |  | 
15 | CC(C)OC(=O)C(C)(C)NP(=O)(OCOC(=O)C(C)(C)C)OC[C@H]1O[C@@](C#N)(c2ccc3c(N)ncnn23)[C@H](O)[C@@H]1O (stereo partly shown) [Compound 195] | 0.1 to 0.5 µM | > 0.5 µM | 0.1 to 0.5 µM | > 0.5 µM |  | 
16 | CC(C)(C)C(=O)OCOP(=O)(OCOC(=O)C(C)(C)C)OC[C@H]1O[C@@](C#N)(c2ccc3c(N)ncnn23)[C@H](O)[C@@H]1O [Compound 196] | 0.1 to 0.5 µM | > 0.5 µM | 0.1 to 0.5 µM | > 0.5 µM |  | 
17 | CC(C)(C)C(=O)OCO[P@@]1(=O)OCC2O[C@@](C#N)(c3ccc4c(N)ncnn34)[C@H](O)[C@@H]2O1 (stereo partly shown) [Compound 197] | 0.1 to 0.5 µM | > 0.5 µM | > 0.5 µM | > 0.5 µM |  | 
18 | CC(C)(C)C(=O)OCO[P@]1(=O)OCC2O[C@@](C#N)(c3ccc4c(N)ncnn34)[C@H](O)[C@@H]2O1 (stereo partly shown) [Compound 198] | 0.1 to 0.5 µM | > 0.5 µM | > 0.5 µM | > 0.5 µM |  | 
19 | CC(C)(C)C(=O)O[C@@H]1[C@@H]2O[P@@](=O)(O)OC[C@H]2O[C@@]1(C#N)c1ccc2c(N)ncnn12 [Compound 199] | > 0.5 µM | > 0.5 µM | > 0.5 µM | > 0.5 µM |  | 
20 | CC(C)(C)C(=O)O[C@@H]1[C@@H]2O[P@](=O)(O)OC[C@H]2O[C@@]1(C#N)c1ccc2c(N)ncnn12 [Compound 200] | > 0.5 µM | > 0.5 µM | > 0.5 µM | > 0.5 µM |  | 
21 | [2H]c1cc([C@]2(C#N)O[C@@H]3CO[P@](=O)(O)O[C@H]3[C@H]2OC(=O)C(CCC)CCC)n2ncnc(N)c12 [Compound 208] | > 0.5 µM | > 0.5 µM | 0.1 to 0.5 µM | 0.1 to 0.5 µM |  | 
22 | [2H]c1cc([C@]2(C#N)O[C@@H]3CO[P@@](=O)(O)O[C@H]3[C@H]2OC(=O)C(CCC)CCC)n2ncnc(N)c12 [Compound 209] | > 0.5 µM | > 0.5 µM | > 0.5 µM | 0.1 to 0.5 µM |  | 
23 | [2H]c1cc([C@]2(C#N)O[C@@H]3CO[P@](=O)(OCOC(=O)C(CCC)CCC)O[C@H]3[C@H]2O)n2ncnc(N)c12 [Compound 210] | < 0.1 µM | < 0.1 µM | < 0.1 µM | 0.1 to 0.5 µM |  | 
24 | [2H]c1cc([C@]2(C#N)O[C@@H]3CO[P@@](=O)(OCOC(=O)C(CCC)CCC)O[C@H]3[C@H]2O)n2ncnc(N)c12 [Compound 211] | < 0.1 µM | < 0.1 µM | 0.1 to 0.5 µM | > 0.5 µM |  | 
25 | [2H]c1cc([C@]2(C#N)O[C@H](COP(=O)(OCOC(=O)C(CCC)CCC)OCOC(=O)C(CCC)CCC)[C@@H](O)[C@H]2O)n2ncnc(N)c12 [Compound 212] | 0.1 to 0.5 µM | > 0.5 µM | 0.1 to 0.5 µM | > 0.5 µM |  | 
26 | CC(C)(C)C(=O)OCO[P@@](=O)(OC[C@H]1O[C@@](C#N)(c2ccc3c(N)ncnn23)[C@H](O)[C@@H]1O)Oc1ccccc1 [Compound 214] |  |  | > 0.5 µM | > 0.5 µM | > 0.5 µM | > 0.5 µM
27 | CC(C)(C)C(=O)OCO[P@](=O)(OC[C@H]1O[C@@](C#N)(c2ccc3c(N)ncnn23)[C@H](O)[C@@H]1O)Oc1ccccc1 [Compound 215] |  |  | > 0.5 µM | > 0.5 µM | > 0.5 µM | > 0.5 µM
28 | CC(C)(C)C(=O)OCO[P@@](=O)(OC[C@H]1O[C@@](C#N)(c2ccc3c(N)ncnn23)[C@H](O)[C@@H]1O)Oc1cccc2ccccc12 [Compound 216] |  |  | > 0.5 µM | > 0.5 µM | > 0.5 µM | > 0.5 µM
